The source of these data is patent publication US10385022B2, “3-amino-pyridines as GPBAR1 agonists” (HOFFMANN-LA ROCHE INC., priority 2011, dated 2019).

This test concerns the target human GPBAR1 receptor (Homo sapiens (Human), UniProt Q8TDU6). In words: functional cAMP assay in CHO-dhfr(minus) cells expressing human GPBAR1 receptors. In kind it is cell-based. The note with it: CHO-dhfr(minus) cells expressing human GPBAR1, 30 min at 30° C. The method, boiled down: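 CHO-dhfr- cells were transfected with human GPBAR1, and a clone was chosen by cAMP response to lithocholic acid. EC50 values come from the cAMP read-out; specificity was checked in non-transfected CHO cells.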
On the technique in general: Cyclic AMP is a second messenger, typically raised through Gs and lowered through Gi signalling.

Sequence of human GPBAR1 receptor (Q8TDU6 whole entry): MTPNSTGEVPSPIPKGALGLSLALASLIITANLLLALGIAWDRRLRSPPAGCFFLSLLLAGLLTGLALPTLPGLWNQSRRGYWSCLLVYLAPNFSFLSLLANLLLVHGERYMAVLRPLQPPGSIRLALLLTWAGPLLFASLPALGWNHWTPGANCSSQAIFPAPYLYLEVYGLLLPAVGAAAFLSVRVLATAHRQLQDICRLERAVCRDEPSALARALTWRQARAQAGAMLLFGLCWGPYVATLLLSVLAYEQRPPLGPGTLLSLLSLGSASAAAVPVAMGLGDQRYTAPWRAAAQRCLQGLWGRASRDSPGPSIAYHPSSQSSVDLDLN

`COc1cc(F)ccc1-c1ccncc1N(Cc1nccn1C)C(=O)c1cc(C(F)(F)F)cc(S(C)(=O)=O)c1` [Example 250, N-[4-(4-Fluoro-2-methoxy-phenyl)-pyridin-3-yl]-3-methanesulfonyl-N-(1-methyl-1H-imidazol-2-ylmethyl)-5-trifluoromethyl-benzamide]: the EC50 (in general, the concentration at which the effect is half-maximal) stood at 2960 nM. In other words, the single-digit micromolar range.
In the case of `COc1cc(F)ccc1-c1ccncc1N(C)C(=O)c1cc(SC2COC2)cc(C(F)(F)F)c1` [Example 251, N-[4-(4-Fluoro-2-methoxy-phenyl)-pyridin-3-yl]-N-methyl-3-(oxetan-3-ylsulfanyl)-5-trifluoromethyl-benzamide] it was 30 nM; in that of `COc1cc(F)ccc1-c1ccncc1N(C)C(=O)c1cc(OC(F)(F)F)cc(S(C)(=O)=O)c1` [Example 252, N-[4-(4-Fluoro-2-methoxy-phenyl)-pyridin-3-yl]-3-methanesulfonyl-N-methyl-5-trifluoromethoxy-benzamide], 170 nM; in that of `Cc1ccc(F)cc1-c1cc(Cl)ncc1N(C)C(=O)c1cc(C(F)(F)F)cc(S(C)(=O)=O)c1` [Example 253, N-[6-Chloro-4-(5-fluoro-2-methyl-phenyl)-pyridin-3-yl]-3-methanesulfonyl-N-methyl-5-trifluoromethyl-benzamide], 3040 nM.
In the case of `COc1cc(F)ccc1-c1ccncc1N(C)C(=O)c1cc(C(F)(F)F)cc(S(=O)(=O)CCCCC(N)=O)c1` [Example 254, 3-(4-Carbamoyl-butane-1-sulfonyl)-N-[4-(4-fluoro-2-methoxy-phenyl)-pyridin-3-yl]-N-methyl-5-trifluoromethyl-benzamide] it was 54 nM.
Then `COc1cc(F)ccc1-c1ccncc1N(C)C(=O)c1cc(C(F)(F)F)cc(S(=O)(=O)C2COC2)c1` [Example 255, N-[4-(4-Fluoro-2-methoxy-phenyl)-pyridin-3-yl]-N-methyl-3-(oxetane-3-sulfonyl)-5-trifluoromethyl-benzamide], with 53 nM.
As for `COc1cc(F)ccc1-c1ccncc1N(C)C(=O)c1cc(C(F)(F)F)cc(S(=O)(=O)N2CCOCC2)c1` [Example 256, N-[4-(4-Fluoro-2-methoxy-phenyl)-pyridin-3-yl]-N-methyl-3-(morpholine-4-sulfonyl)-5-trifluoromethyl-benzamide], the EC50 was 20 nM.
Then `COc1cc(F)ccc1-c1ccncc1N(C)C(=O)c1cc(Cl)cc(S(C)(=O)=O)c1` [Example 257, 3-Chloro-N-[4-(4-fluoro-2-methoxy-phenyl)-pyridin-3-yl]-5-methanesulfonyl-N-methyl-benzamide], with 79 nM.
Then `CN(C(=O)c1cc(C(F)(F)F)cc(S(C)(=O)=O)c1)c1cnccc1-c1ccccc1OCc1ccccc1` [Example 258, N-[4-(2-Benzyloxy-phenyl)-pyridin-3-yl]-3-methanesulfonyl-N-methyl-5-trifluoromethyl-benzamide], with 1860 nM; and `COc1cc(F)ccc1-c1ccncc1N(C)C(=O)c1cc(SCCN2CCC2)cc(C(F)(F)F)c1` [Example 259, 3-(2-Azetidin-1-yl-ethylsulfanyl)-N-[4-(4-fluoro-2-methoxy-phenyl)-pyridin-3-yl]-N-methyl-5-trifluoromethyl-benzamide], with 134 nM; and `COc1cc(F)ccc1-c1ccncc1N(C)C(=O)c1cc(C2CC2)cc(S(C)(=O)=O)c1` [Example 260, 3-Cyclopropyl-N-[4-(4-fluoro-2-methoxy-phenyl)-pyridin-3-yl]-5-methanesulfonyl-N-methyl-benzamide], with 153 nM.
Then `COc1cc(F)ccc1-c1ccncc1N(C)C(=O)c1cc(SCCNS(N)(=O)=O)cc(C(F)(F)F)c1` [Example 261, N-[4-(4-fluoro-2-methoxyphenyl)pyridin-3-yl]-N-methyl-3-{[2-(sulfamoylamino)ethyl]-sulfanyl}-5-(trifluoromethyl)benzamide], with 190 nM.
In turn, `COc1cc(F)ccc1-c1ccncc1N(C)C(=O)c1cc(SCCNS(C)(=O)=O)cc(C(F)(F)F)c1` [Example 262, N-[4-(4-Fluoro-2-methoxy-phenyl)-pyridin-3-yl]-3-(2-methanesulfonylamino-ethylsulfanyl)-N-methyl-5-trifluoromethyl-benzamide] returned a concentration giving a half-maximal response (EC50) of 231 nM.
In the case of `COc1ccccc1-c1ccncc1N(C)C(=O)c1cc(C(F)(F)F)cc(S(C)(=O)=O)c1` [Example 263, 3-Methanesulfonyl-N-[4-(2-methoxy-phenyl)-pyridin-3-yl]-N-methyl-5-trifluoromethyl-benzamide] it was 17 nM; in that of `Cc1cc(-c2cc(F)ccc2C)c(N(C)C(=O)c2cc(C(F)(F)F)cc(S(C)(=O)=O)c2)cn1` [Example 264, N-[4-(5-Fluoro-2-methyl-phenyl)-6-methyl-pyridin-3-yl]-3-methanesulfonyl-N-methyl-5-trifluoromethyl-benzamide], 2410 nM.
Then `COc1cc(F)ccc1-c1ccncc1N(C)C(=O)c1cc(C(F)(F)F)cc(S(=O)(=O)CCN2CCC2)c1` [Example 265, 3-(2-Azetidin-1-yl-ethanesulfonyl)-N-[4-(4-fluoro-2-methoxy-phenyl)-pyridin-3-yl]-N-methyl-5-trifluoromethyl-benzamide], with 121 nM; and `CCOC(=O)CCc1cc(C(=O)N(C)c2cnccc2-c2ccc(F)cc2OC)cc(C(F)(F)F)c1` [Example 266, 3-(3-{[4-(4-Fluoro-2-methoxy-phenyl)-pyridin-3-yl]-methyl-carbamoyl}-5-trifluoromethyl-phenyl)-propionic acid ethyl ester], with 177 nM.
In the case of `CN(C(=O)c1cc(C(F)(F)F)cc(S(C)(=O)=O)c1)c1cnccc1-c1ccc(F)cc1OCc1ccccc1` [Example 267, N-[4-(2-Benzyloxy-4-fluoro-phenyl)-pyridin-3-yl]-3-methanesulfonyl-N-methyl-5-trifluoromethyl-benzamide] it was 3460 nM; in that of `COc1cc(F)ccc1-c1ccncc1N(C)C(=O)c1cc(SC2CN(C(=O)OC(C)(C)C)C2)cc(C(F)(F)F)c1` [Example 268, 3-(3-{[4-(4-Fluoro-2-methoxy-phenyl)-pyridin-3-yl]-methyl-carbamoyl}-5-trifluoromethyl-phenylsulfanyl)-azetidine-1-carboxylic acid tert-butyl ester], 768 nM; in that of `COc1cc(F)ccc1-c1ccncc1N(C)C(=O)c1cc(C(F)(F)F)cc(S(=O)(=O)CCNS(N)(=O)=O)c1` [Example 269, N-[4-(4-fluoro-2-methoxyphenyl)pyridin-3-yl]-N-methyl-3-{[2-(sulfamoylamino)ethyl]-sulfonyl}-5-(trifluoromethyl)benzamide], 94 nM.
In turn, `COc1cc(F)ccc1-c1ccncc1N(C)C(=O)c1cc(C(F)(F)F)cc(S(=O)(=O)CCNS(C)(=O)=O)c1` [Example 270, N-[4-(4-Fluoro-2-methoxy-phenyl)-pyridin-3-yl]-3-(2-methanesulfonylamino-ethanesulfonyl)-N-methyl-5-trifluoromethyl-benzamide] showed an EC50 of 133 nM.
`Cc1ccccc1-c1ccncc1N(C)C(=O)c1cc(NCCO)cc(C(F)(F)F)c1` [Example 271, 3-(2-Hydroxy-ethylamino)-N-methyl-N-(4-o-tolyl-pyridin-3-yl)-5-trifluoromethyl-benzamide] showed an EC50 of 3130 nM.
In the case of `CN(C(=O)c1cc(C(F)(F)F)cc(S(C)(=O)=O)c1)c1cnccc1-c1ccccc1OC1COC1` [Example 272, 3-Methanesulfonyl-N-methyl-N-{4-[2-(oxetan-3-yloxy)-phenyl]-pyridin-3-yl}-5-trifluoromethyl-benzamide], the EC50 is 64 nM.
In the case of `COc1cc(F)ccc1-c1ccncc1N(CC1CCOC1)C(=O)c1cc(C(F)(F)F)cc(S(C)(=O)=O)c1` (stereo not shown) [Example 273, N-[4-(4-Fluoro-2-methoxy-phenyl)-pyridin-3-yl]-3-methanesulfonyl-N-(tetrahydro-furan-3-ylmethyl)-5-trifluoromethyl-benzamide] it was 1500 nM; in that of `CN(C(=O)c1cc(C(F)(F)F)cc(S(C)(=O)=O)c1)c1cnccc1-c1ccccc1OC(F)(F)F` [Example 274, 3-Methanesulfonyl-N-methyl-N-[4-(2-trifluoromethoxy-phenyl)-pyridin-3-yl]-5-trifluoromethyl-benzamide], 34 nM.
In the case of `COc1cc(F)ccc1-c1ccncc1N(C)C(=O)c1cc(SC2CNC2)cc(C(F)(F)F)c1` [Example 275, 3-(Azetidin-3-ylsulfanyl)-N-[4-(4-fluoro-2-methoxy-phenyl)-pyridin-3-yl]-N-methyl-5-trifluoromethyl-benzamide] it was 1230 nM; in that of `Cc1ccc(F)cc1-c1ccncc1N(C)C(=O)c1cc(C(F)(F)F)cc(S(C)(=O)=O)c1` [Example 276, N-[4-(5-Fluoro-2-methyl-phenyl)-pyridin-3-yl]-3-methanesulfonyl-N-methyl-5-trifluoromethyl-benzamide], 162 nM.
`CN(C(=O)c1cc(C(F)(F)F)cc(S(C)(=O)=O)c1)c1cnccc1-c1ccccc1OC1CCC1` [Example 277, N-[4-(2-Cyclobutoxy-phenyl)-pyridin-3-yl]-3-methanesulfonyl-N-methyl-5-trifluoromethyl-benzamide] showed an EC50 of 8 nM. Compared with the last compound, the EC50 is about 20-fold lower.
Then `CN(C(=O)c1cc(C(F)(F)F)cc(S(C)(=O)=O)c1)c1cnccc1-c1ccccc1Cl` [Example 278, N-[4-(2-Chloro-phenyl)-pyridin-3-yl]-3-methanesulfonyl-N-methyl-5-trifluoromethyl-benzamide], with 107 nM; and `CN(C(=O)c1cc(C(F)(F)F)cc(S(C)(=O)=O)c1)c1cnccc1-c1cccnc1OCC(F)(F)F` [Example 279, 3-Methanesulfonyl-N-methyl-N-[2-(2,2,2-trifluoro-ethoxy)-[3,4′]bipyridinyl-3′-yl]-5-trifluoromethyl-benzamide], with 77 nM.
For `COc1cc(F)ccc1-c1ccncc1N(C)C(=O)c1cc(C(F)(F)F)cc(S(=O)(=O)C2CNC2)c1` [Example 280, 3-(Azctidine-3-sulfonyl)-N-[4-(4-fluoro-2-methoxy-phenyl)-pyridin-3-yl]-N-methyl-5-trifluoromethyl-benzamide], the EC50 is 268 nM. This EC50 is about 3.5-fold higher than that of the compound before.
